Experimental findings from patent US20240342273A1, “IMMUNOTHERAPEUTIC METHOD FOR INCREASING CASHEW TOLERANCE IN A SUBJECT” (DBV Technologies, priority 2021, published 2024) are described below.

Entries after “also recorded” stand apart in the source; their conditions may differ.

The subject of assay [1] is CD62L+/FoxP3+ Tregs. In words: Phenotyping of Tregs by FACS in spleen and brachial lymph nodes. The class given is in vivo, mice. The settings on record: after 8 weeks of EPIT; Tregitope co-administered with cashew. On the procedure: (§1) Sensitized mice were then treated by epicutaneous immunotherapy using Viaskin patches: • 10 mice were treated with viaskin containing excipient (Phosphate buffer 0.1 M+DMSO) • 10 mice were treated with viaskin containing 50 μg cashew protein (Stallergenes Greer, ref XPF84D3A2.5), • 10 mice were treated with viaskin containing 50 μg cashew protein+50 μg T1 • 10 mice were treated with viaskin containing 50 μg cashew protein+50 μg T2 • 10 mice were treated with viaskin containing 50 μg cashew protein+50 μg T3 • 10 mice were treated with viaskin containing 50 μg cashew protein+50 μg T1+50 μg T2+50 μg T3 • 10 mice were treated with viaskin containing 50 μg T1+50 μg T2+50 μg T3 m Tregitopes T1, T2 and T3 correspond to the homologs of human Tregitopes of SEQ ID NO: 1, SEQ ID NO:2 and SEQ ID NO:3, respectively. The N-terminus of the tested peptides was acetylated (CH3(C═O)—) while the C-terminus was amidated (—NH2) to prevent degradation by protease. […]
(§2) Anaphylactic reactions were characterized by a drop in body temperature and the occurrence of clinical symptoms. […] Cashew-specific IgE, IgG1 and IgG2a were measured by in house ELISA. […]

For assay [2], the system named is re-stimulated splenocytes. In words: In vitro culture of spleen cells with or without cashew stimulation (proliferation, cytokine production). As to conditions: splenocytes after 8 weeks of EPIT. The class given is cell-based, mice. On the procedure: as §1, §2
Assay [3] deals with cashew-sensitized mice. The assay is described as follows: Oral cashew challenge after 8 weeks of EPIT (anaphylaxis: body temperature, clinical symptoms, mMCP-1). As to conditions: Tregitope co-administered with cashew allergen extract by epicutaneous route, cashew-sensitized mouse model.

As to “T2: mTregitope from IgG1 (CH), EEQFNSTFRSVSELPIMHQ, homolog of human Tregitope SEQ ID NO: 2 (Ac-EEQFNSTFRSVSELPIMHQ-NH2) [Tregitope T2]”, in assay [1], the “numbers of CD62L+/FoxP3+ Tregs in skin-draining lymph nodes (FIG. 2B)” value is on record as “increase” and the “numbers of CD62L+/FoxP3+ Tregs in spleens (FIG. 2A)” value is reported as “increase”. Also, in assay [2], the “Th2 cytokines (IL-4) in re-stimulated splenocytes (FIG. 2D)” value is recorded as “down-modulation” and the “cashew specific T-cell proliferation (FIG. 2C)” value is “reduced”. Also, the “potentiation of the efficacy of EPIT for providing tolerance to cashew” value in assay [3] is recorded as “clearly potentiate; also recorded: particularly marked”.
